Key:
[1] = molecular target: T1, Adrenergic receptor alpha-2 (Rattus norvegicus, UniProt P22086+P19328+P22909); test: Antagonism of the clonidine-induced depression of twitch responses of rat isolated prostatic vas deferens.
T1 sequence (P22086 whole entry): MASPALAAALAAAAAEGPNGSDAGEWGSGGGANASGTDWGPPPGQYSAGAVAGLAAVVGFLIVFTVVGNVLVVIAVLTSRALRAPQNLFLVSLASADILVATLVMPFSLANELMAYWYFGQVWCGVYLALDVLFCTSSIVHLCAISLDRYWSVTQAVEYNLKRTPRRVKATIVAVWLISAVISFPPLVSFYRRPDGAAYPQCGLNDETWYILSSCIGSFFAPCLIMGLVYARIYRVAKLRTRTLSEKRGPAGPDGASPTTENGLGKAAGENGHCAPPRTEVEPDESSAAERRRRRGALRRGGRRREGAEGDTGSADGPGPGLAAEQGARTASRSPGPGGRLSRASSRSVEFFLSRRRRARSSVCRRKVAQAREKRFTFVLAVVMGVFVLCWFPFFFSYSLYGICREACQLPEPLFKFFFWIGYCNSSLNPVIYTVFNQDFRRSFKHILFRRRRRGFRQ
T1 sequence (P19328 whole entry): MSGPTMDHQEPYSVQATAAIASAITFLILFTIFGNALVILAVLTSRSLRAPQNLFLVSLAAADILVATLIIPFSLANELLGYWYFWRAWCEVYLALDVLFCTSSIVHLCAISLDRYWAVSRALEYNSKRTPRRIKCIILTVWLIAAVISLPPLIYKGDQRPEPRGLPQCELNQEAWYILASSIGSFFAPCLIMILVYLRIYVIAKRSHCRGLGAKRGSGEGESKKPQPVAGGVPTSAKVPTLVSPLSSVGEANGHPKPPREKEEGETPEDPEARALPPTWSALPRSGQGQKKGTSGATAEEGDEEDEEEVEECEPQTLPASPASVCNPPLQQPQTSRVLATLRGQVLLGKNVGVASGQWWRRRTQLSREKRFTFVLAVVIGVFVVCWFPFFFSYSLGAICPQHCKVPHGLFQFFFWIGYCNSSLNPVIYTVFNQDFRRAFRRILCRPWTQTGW
T1 sequence (P22909 whole entry): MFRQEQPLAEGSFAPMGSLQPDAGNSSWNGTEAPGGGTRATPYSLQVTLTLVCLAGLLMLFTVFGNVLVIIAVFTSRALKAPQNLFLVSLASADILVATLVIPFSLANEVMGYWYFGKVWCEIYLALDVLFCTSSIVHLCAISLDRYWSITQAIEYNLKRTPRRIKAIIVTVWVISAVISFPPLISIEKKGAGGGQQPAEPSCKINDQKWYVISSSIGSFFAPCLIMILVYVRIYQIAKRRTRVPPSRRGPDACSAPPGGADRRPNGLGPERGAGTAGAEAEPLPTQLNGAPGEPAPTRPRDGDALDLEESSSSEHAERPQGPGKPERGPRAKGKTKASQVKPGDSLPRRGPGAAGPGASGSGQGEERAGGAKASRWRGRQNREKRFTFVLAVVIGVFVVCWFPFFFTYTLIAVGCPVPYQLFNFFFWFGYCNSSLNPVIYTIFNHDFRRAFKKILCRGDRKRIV

[2] = molecular target: T2, Alpha-1A adrenergic receptor (Rattus norvegicus, UniProt P43140); test: Antagonism of the norepinephrine induced contraction of rat isolated prostatic vas deferens.; format: functional; conditions: read-out: pA2 (converted)
T2 sequence (P43140 whole entry): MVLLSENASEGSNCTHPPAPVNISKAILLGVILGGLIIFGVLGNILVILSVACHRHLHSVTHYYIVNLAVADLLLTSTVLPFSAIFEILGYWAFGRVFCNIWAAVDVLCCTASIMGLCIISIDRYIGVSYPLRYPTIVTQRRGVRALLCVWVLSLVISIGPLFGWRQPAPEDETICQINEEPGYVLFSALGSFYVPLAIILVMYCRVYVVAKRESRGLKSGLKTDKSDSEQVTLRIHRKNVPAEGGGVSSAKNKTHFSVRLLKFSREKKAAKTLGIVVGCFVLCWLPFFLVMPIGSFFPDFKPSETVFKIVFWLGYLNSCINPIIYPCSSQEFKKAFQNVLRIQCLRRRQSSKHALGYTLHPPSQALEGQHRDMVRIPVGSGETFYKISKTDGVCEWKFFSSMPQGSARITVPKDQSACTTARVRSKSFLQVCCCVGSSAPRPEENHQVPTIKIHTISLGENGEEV

COc1cc2nc(N(C)CCCCCCN(C)C(=O)c3cccc(CN(C)C)c3)nc(N)c2cc1OC
pA2 [1]: < 5
Kb [2]: 55 nM

Source: ChEMBL document CHEMBL1131296 (J Med Chem, 1998)
